In patent US12589158B2 (priority 2022, dated 2026):
Like-named read-outs stand apart in the source and are kept apart here.

Tests used:
[1] = biological target: T1, human GLP-1 receptor (Homo sapiens, UniProt P43220); assay: In vitro binding activity to human GLP-1 receptor ([125I]GLP-1, crude cellular membranes); conditions: ratio of the Ki value of the endogenous ligand to the Ki value of the test compound; larger = stronger binding
T1 construct: expressed in transfected cells; crude membranes
Procedure: 89 μL of membrane dissolved in binding buffer (50 mM Hepes, pH 7.4, 5 mM MgCl2, 5 mM EDTA, 0.005% TWEEN, 0.005% HSA) is transferred to a 96-well test plate (5 μg/well). The compound is serially diluted in DMSO, and then, 1 μL of the diluted compound or 100% DMSO is added to the test plate containing the membrane solution. 10 μL of [^125I] […] The test plate is left at room temperature for 90 minutes. The membrane complexes are harvested into a GF/B plate pre-coated with 0.5% PEI by using a Cell Harvester, and washed for 3 times with 500 μL of pre-cooled elution buffer (50 mM Hepes, pH 7.4, 500 mM NaCl) at 4° C. After drying at 37° C. for 2 hours, 50 μL of scintillation fluid is added to each well. The plate is read with a MicroBeta2 scintillation counter after sealing and settling for at least 1 hour so as to determine the membrane bound radioligand level.
The absolute IC50 concentration of the compound is derived by non-linear regression of the binding percent of [^125I] […] The IC50 concentration is converted to Ki (Ki is the inhibition constant) using the Cheng-Prusoff equation.

[2] = system: db/db mice; assay: Pharmacodynamics in db/db mice, single subcutaneous administration (blood glucose); type: in vivo; conditions: Group 2, single s.c. 10 nmol/kg, longest time with random blood glucose P<0.05 vs. vehicle
Procedure: The “inhibition of blood glucose AUC” as disclosed in the present invention is the reduction percentage of blood glucose AUC in the group taken the test compound as compared with the group taken the Vehicle. Inhibition of blood glucose AUC=(blood glucose AUCVehicle-blood glucose AUCtest compound)/blood glucose AUCVehicle.
In this study, 8-9 week old male db/db mice are used. The db/db mice are placed in an individual ventilated cage (IVC) facility with a controlled temperature (20-26° C.) and humidity (40-70%) and a controlled 12h: 12 h light-dark cycle. The mice received food and water ad libitum. Blood is sampled at the tail tip, and the fasting blood glucose is measured by a Roche blood glucose meter. The mice are randomly divided into groups according to the initial blood glucose and initial body weight (n=6/group), and each group had similar body weight and blood glucose.
After a single subcutaneous administration, the random blood glucoses are recorded at the set time point (0 to 120 hours, the recording of the random blood glucose is stopped until there is no difference between the random blood glucose of the compound and that of the vehicle group), and the daily body weight and food intake are also recorded. The data results are statistically analyzed using GraphPad Prism8, and the statistical differences among the groups are analyzed following a T-Test. […]

[3] = Pharmacokinetics following single administration in SD rat; design: species or system SD rats; conditions: in vivo, sc, 50 nmol/kg
Procedure, shortened: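 Male SD rats (230–268 g, n=3) dosed once at 50.0 nmol/kg s.c. or 25.0 nmol/kg i.v. Plasma protein precipitated with acetonitrile containing internal standards; drug concentration measured by LC-MS/MS.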

[4] = Pharmacokinetics in beagle dogs; type: in vivo; conditions: 0.05 mg/kg
Procedure: After subcutaneous administration to beagle dogs, plasma is collected and the drug concentration in plasma is determined to illustrate the in vivo pharmacokinetic properties of the compound according to the present invention. The compound of the present invention is administered to a beagle dog (7-9 kg) at a dose of 0.05 mg/kg subcutaneously (s.c.). About 500 μL of whole blood is collected from the saphenous vein into an EDTA-K2 anticoagulant tube at predose, 0.5 hours, 1 hour, 2 hours, 6 hours, 10 hours, 24 hours, 48 hours, 72 hours and 96 hours, respectively. The blood samples are centrifuged at 3000 g and at 2° C. to 8° C. for 10 minutes to obtain plasma, which is stored at −90° C. to −60° C. for further analysis and assay.
20.0 μL of thawed plasma sample is taken. […] Then 120 μL of 0.1% formic acid methanol is added to precipitate the protein. The mixture is vortexed for 5 minutes, and centrifuged at 4815 g for 10 minutes. 100.0 μL of the supernatant is taken, into which 100 μL of 0.5% aqueous formic acid solution is added. The mixture is vortexed for 5 minutes. 10 μL of the mixture solution is sampled and injected into the LC-MS/MS to determine the drug concentration in plasma.
Based on the drug concentration in plasma of the compound in the beagle dogs, the pharmacokinetic parameters are calculated by applying the software Winnolin 8.3 in a non-compartmental model.

[5] = type: in vivo; conditions: rat, in vivo, male SD rats
Procedure: (§1) 77 SD male rats (SPF grade) are selected and randomly divided into 10 groups based on body weight. Group 1 is the vehicle control group, including 5 animals. […] Group 5 to Group 7 are the groups administrated with the test substance 1; and Group 8 to Group 10 are the groups administrated with the test substance 2, each group including 8 animals, wherein 5 animals for primary test, and 3 animals for toxicokinetics test, and the administration dose is 1, 3 and 10 mg/kg respectively. Each of the above groups is continuously administered twice a week for 2 weeks (administrating at Day 1, Day 5, Day 8, Day 12 and Day 15).
(§2) During the experiment, the cage condition monitoring, detailed clinical observations, determination of the food consumption, determination of body weight, measurement of the blood biochemical and hematology indicator, investigation of the gross anatomy, weighing of the organ, studying on toxicokinetic are performed on all the groups of the animals.
(§3) Original data during each time period is tabulated. The average values and standard deviations and/or group change are calculated for each assay endpoint based on the group and sex. For each endpoint, the administrated group will be compared with the control group in the following aspect. A logarithmic conversion is performed to the endpoint data as desired prior to the start of the specific analyses.

[6] = system: SD male rats; type: in vivo
Procedure: as §1, §2, §3

[7] = Pharmacokinetics in cynomolgus monkeys; conditions: cynomolgus monkey, in vivo
[8] = in vivo
[9] = Pharmacokinetics in C57 mice; conditions: mouse, in vivo
Procedure: After subcutaneous or intravenous administration to C57 mice, plasma is collected and the drug concentration in plasma is determined to illustrate the in vivo pharmacokinetic properties of the compound according to the present invention. […] 20.0 μL of thawed plasma sample is taken. 20 μL of 50% aqueous methanol solution (containing 100 ng mL^−1 internal standard) and 60 μL of acetonitrile are added sequentially to precipitate protein. The mixture is vortexed for 5 minutes, and centrifuged at 3700 rpm for 8 minutes. 50.0 μL of the supernatant is taken, into which 50.0 μL of 0.5% aqueous formic acid solution is added. The mixture is vortexed for 5 minutes. 50 μL of the mixture solution is sampled and injected into the LC-MS/MS to determine the drug concentration in plasma.

[10] = male SD rats, twice a week for 2 weeks, 1, 3, 10 mg/kg

T1 sequence (P43220 24-463): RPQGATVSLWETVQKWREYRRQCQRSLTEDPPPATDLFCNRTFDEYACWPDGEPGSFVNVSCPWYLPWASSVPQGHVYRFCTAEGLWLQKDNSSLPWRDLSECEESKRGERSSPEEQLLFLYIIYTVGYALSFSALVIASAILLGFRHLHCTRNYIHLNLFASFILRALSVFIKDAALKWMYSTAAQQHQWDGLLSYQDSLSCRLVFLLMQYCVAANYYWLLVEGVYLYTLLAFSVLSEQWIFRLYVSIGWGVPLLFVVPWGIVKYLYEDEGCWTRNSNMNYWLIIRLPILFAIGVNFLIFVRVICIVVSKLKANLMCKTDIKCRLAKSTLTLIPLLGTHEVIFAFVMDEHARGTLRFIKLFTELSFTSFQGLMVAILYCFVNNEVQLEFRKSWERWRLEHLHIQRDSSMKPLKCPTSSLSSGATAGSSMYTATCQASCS

For CC[C@H](C)[C@H](NC(=O)C(C)(C)NC(=O)[C@H](Cc1ccc(O)cc1)NC(=O)[C@H](CC(=O)O)NC(=O)[C@H](CO)NC(=O)[C@@H](NC(=O)C(C)(Cc1ccccc1)NC(=O)[C@@H](NC(=O)CNC(=O)[C@H](CCC(=O)O)NC(=O)C(C)(C)NC(=O)[C@@H](N)Cc1ccc(O)cc1)[C@@H](C)O)[C@@H](C)O)C(=O)NC(C)(C)C(=O)N[C@@H](CC(C)C)C(=O)N[C@@H](CC(=O)O)C(=O)N[C@@H](CCCCN)C(=O)N[C@@H](CCC(N)=O)C(=O)N[C@@H](C)C(=O)N[C@@H](CCC(N)=O)C(=O)N[C@@H](C)C(=O)N[C@@H](CCC(=O)O)C(=O)N[C@@H](Cc1ccccc1)C(=O)N[C@H](C(=O)N[C@@H](CCCCNC(=O)COCCOCCNC(=O)COCCOCCNC(=O)CC[C@H](NC(=O)CC[C@H](NC(=O)CC[C@H](NC(=O)CCCCCCCCCCCCCCCCC(=O)O)C(=O)O)C(=O)O)C(=O)O)C(=O)N[C@@H](Cc1c[nH]c2ccccc12)C(=O)N[C@@H](CC(C)C)C(=O)N[C@@H](CC(C)C)C(=O)N[C@@H](CCCCN)C(=O)NCC(=O)NCC(=O)N1CCC[C@H]1C(=O)N[C@@H](CO)C(=O)N[C@@H](CO)C(=O)NCC(=O)N[C@@H](C)C(=O)N1CCC[C@H]1C(=O)N1CCC[C@H]1C(=O)N1CCC[C@H]1C(=O)N[C@@H](CO)C(=O)N[C@@H](CCCCN)C(N)=O)C(C)C (stereo partly drawn) [P015], the “GLP-1R Ki ratio” value [1] was 0.17, the “Hypoglycemic Duration” value [2] was 32 h and the MRT inf [3] was 31.4 ± 1.35 h. The MRT last [3] was 26.8 ± 0.557 h.
With CC[C@H](C)[C@H](NC(=O)C(C)(C)NC(=O)[C@H](Cc1ccc(O)cc1)NC(=O)[C@H](CC(=O)O)NC(=O)[C@H](CO)NC(=O)[C@@H](NC(=O)C(C)(Cc1ccccc1)NC(=O)[C@@H](NC(=O)CNC(=O)[C@H](CCC(=O)O)NC(=O)C(C)(C)NC(=O)[C@@H](N)Cc1ccc(O)cc1)[C@@H](C)O)[C@@H](C)O)C(=O)NC(C)(C)C(=O)N[C@@H](CC(C)C)C(=O)N[C@@H](CC(=O)O)C(=O)N[C@@H](CCCCN)C(=O)N[C@@H](CCC(N)=O)C(=O)N[C@@H](C)C(=O)N[C@@H](CCC(N)=O)C(=O)N[C@@H](C)C(=O)N[C@@H](CCC(=O)O)C(=O)N[C@@H](Cc1ccccc1)C(=O)N[C@H](C(=O)N[C@@H](CCCCNC(=O)COCCOCCNC(=O)COCCOCCNC(=O)COCCOCCNC(=O)CC[C@H](NC(=O)CCCCCCCCCCCCCCCCCCCCC(=O)O)C(=O)O)C(=O)N[C@@H](Cc1c[nH]c2ccccc12)C(=O)N[C@@H](CC(C)C)C(=O)N[C@@H](CC(C)C)C(=O)N[C@@H](CCCCN)C(=O)NCC(=O)NCC(=O)N1CCC[C@H]1C(=O)N[C@@H](CO)C(=O)N[C@@H](CO)C(=O)NCC(=O)N[C@@H](C)C(=O)N1CCC[C@H]1C(=O)N1CCC[C@H]1C(=O)N1CCC[C@H]1C(=O)N[C@@H](CO)C(=O)N[C@@H](CCCCN)C(N)=O)C(C)C (stereo partly drawn) [P016] the AUC(0-t) ([4]; beagle dogs, single subcutaneous administration, plasma) was 29925 ng·h/mL, the MRT inf ([4]; dog, in vivo, sc) was 108 ± 23.2 h and the MRT last ([4]; dog, in vivo, sc) was 44.8 ± 4.17 h. The T1/2 ([4]; dog, in vivo, sc) was 69.32 h, the MTD ([5]; MTD for 2 weeks, twice a week) was 1.92 µmol/kg and the MTD ([5]; continuously administered twice a week for 2 weeks) was greater than 10 mg/kg. For the same compound, the “Toxicokinetic: Cmax and AUC versus dose” value ([6]; male SD rats, 1, 3, 10 mg/kg) was “increase nearly proportionally to the dose”, the “Toxicokinetic: accumulation” value ([6]; male SD rats, continuously administered twice a week for 2 weeks) was “no substantial accumulation” and the “Food Intake” value [6, 10] was “dose-dependent decrease”. The “Gross Anatomy” value [6, 10] was “no abnormalities are found”, the “Safety Window (based on dosage)” value ([6]; rat MTD for 2 weeks vs efficacy dose in db/db mice) was 1282 and the MRT inf ([7]; iv, 12.5 nmol/kg) was 72.9 ± 10.9 h. The MRT last ([7]; iv, 12.5 nmol/kg) was 65.3 ± 8.85 h, the T1/2 ([7]; iv, 12.5 nmol/kg) was 59.81 ± 8.95 h and the MRT inf ([7]; sc, 25 nmol/kg) was 101 ± 19.2 h. It also gave an MRT last ([7]; sc, 25 nmol/kg) of 96.5 ± 15.9 h, a T1/2 ([7]; sc, 25 nmol/kg) of 60.40 ± 12.80 h and an MRT inf [3] of 31.1 ± 1 h. For the same compound, the MRT last [3] was 28.1 ± 1.12 h, the T1/2 [3] was 14.1 ± 0.153 h and the “heart rate recovery time” value [8] was 72 to 120 h. For the same compound, the “increase in HR” value [8] was “lower than that for Tirepatide”, the MRT inf ([9]; iv) was 26.6 h and the MRT last ([9]; iv) was 19.9 h. The MRT inf ([9]; sc) was 35.9 h and the MRT last ([9]; sc) was 26 h.
